Measurements taken from US7741435B2, “Substance P-saporin (SP-SAP) conjugates and methods of use thereof” (Advanced Targeting Systems, Inc., priority 1997, dated 2010).

Key:
[1] = system: NK-1R-expressing spinal cord neurons; assay: Internalization and cytotoxicity in primary cultures of spinal cord neurons; assay type: cell-based, rat; conditions: for morphological or cytotoxic changes in NK-1R-expressing and non-NK-1R, MAP-2 neurons: treatment alone
Method: SP-SAP internalization and cytotoxicity was examined in primary cultures of neonatal rat spinal cord neurons where approximately 15% of the neurons express NK-1R. All procedures were approved by Animal Care Committee at the VA Medical Center and the University of Minnesota. Neurons were cultured from the spinal cords of 18-day embryonic Holtzman rats (Harlan Sprague Dawley, Madison, Wis.). The whole spinal cord was dissected out of the rat and placed in 4° C. Puck's saline supplemented with 40 mM. glucose, 50 mM sucrose, and 10 mM Hepes (DISG media, pH 7.4). The spinal cords were then dissociated by trituration (15-20 times) through a small bore serological pipet. The resulting cell suspension was centrifuged at 4° C. for 5 min at 1500 rpm in a Sorvall RC-3B centrifuge (DuPont, Newtown, Conn.). The supernatant was removed and the pellet resuspended in Dulbecco's modified Eagle's medium (DMEM; Sigma Chemical Co., St. Louis, Mo.) plus 5% equine serum and 5% calf serum (v/v) (Hyclone, Logan, Utah). The cell suspension was plated on poly-L-ornithine coated 2-well chamber slides at a density of 100,000 cells/ml, and incubated at 37° C. with 9% CO2. After 4 days the mitotic inhibitors, 5-fluoro-2′-deoxyuridine and uridine were added. At 7 days the media was replaced with DMEM plus 10% equine serum (v/v). The cells were incubated unil 14 days post-culture with media changes every 4th day.
At day 14 post-culture, either saline or SP, SP-SAP conjugate or saporin (SAP) were added to a final concentration of 10^−7 M. The cells were incubated for 12 hr with the SP-SAP or SAP compounds at which time the compounds were removed from the culture and fresh media was added. The cultures were then allowed to continue until the desired timepoints (2 hr. 1, 4, 7, and 10 days) at which time the experiment was terminated and the cells were processed for immunohistochemistry by fixing for 20 min at 22° C. with 4% formalin in a phosphate buffered saline solution as previously described (2,39-42). […] Two hours following treatment with 10^−7 M SP-SAP, but not 10^−7 M SAP, NK-1R internalization was visualized using an antibody that recognized NK-1R (FIG. 8A) and intracellular accumulation of SAP was visualized using an antibody that recognized SAP (FIG. 8B)
In contrast, one day following treatment with SP alone the majority of NK-1R had recycled to the plasma membrane. Thus, within 24 hours after SP-SAP internalization these neurons could no longer efficiently recycle NK-1R back to the plasma membrane.

[2] = General observation after intrathecal infusion (body weight, food intake, behavior); assay type: in vivo, rat; conditions: for 28 days after intrathecal injection
[3] = system: NK-1R-expressing lamina I spinal cord neurons; assay: Cytotoxicity of intrathecal infusion in the spinal cord (immunohistochemistry, confocal microscopy); conditions: for change in NK-1R immunoreactivity in lamina I, spinal segments L2-L5: intrathecal injection alone, any time point examined; for change in cell number, morphology or fluorescence level of any of the cell markers examined: treatment alone, 28 days
Method: Animals were anesthetized with an intramuscular injection of Ketamine (100 mg/kg) & Acepromazine (1 mg/kg) and placed in a stereotaxic frame. An 8.5-cm length of PE-10 tubing (inner diameter: 0.28 mm, outer diameter: 0.61 mm), serving as an inflow cannula, was inserted into the subarachnoid space via an incision in the atlanto-occipital membrane. The cannula terminated in the caudal region of the lumbar enlargement (approximately L4). […] 5 min after spinal superfusion, the cannula was carefully withdrawn and the wound closed with 3-0 silk sutures.
Immunohistochemistry and fluorescent confocal microscopy was performed as previously described (46) using an MRC-1024 Confocal Imaging System (Bio-Rad, Boston, Mass.) and an Olympus BH-2 microscope equipped for epifluorescence (Lake Success, N.Y.). For cell counts the spinal cords were cut in the sagittal plane whereas for immunofluorescence measurements the spinal cords were cut in either the sagittal or coronal plane. Both of the microscopes were set up as previously described (46,47). SPR was detected by a polyclonal rabbit anti-SPR antibody (1:5000; a kind gift from S. Vigna) raised against a 15 amino acid peptide sequence (SPR393-407) at the COOH-terminus of the rat SPR. […] Calbindin was detected by a monoclonal mouse anti-calbindin antibody (Sigma, 1:300). Microtubule-associated protein (MAP-2) was detected by a monoclonal mouse anti MAP-2 antibody (Sigma, 1:750). Choline acetyl transferase (CHAT) was detected by a monoclonal mouse anti-ChAT antibody (Chemicon, 1:500). Glial Fibrillary Acidic Protein was detected by a polyclonal rabbit anti-GFAP antibody (DAKO, 1:450). OX-42 was detected using a monoclonal mouse antibody (Chemicon, 1:2,000). Saporin was detected by a polyclonal goat anti-Saporin antibody (Advanced Targeting Systems, 1:350). […] All primary (overnight, 22° C.) and secondary (3 hours, 22° C.) antibodies were applied in cocktails with 1% goat serum and 0.3% Triton X-100 in PBS solution. Finally, the tissue sections were washed for 20 min in PBS (pH 7.4, 22_C), mounted onto gelatin-coated slides, and coverslipped using PBS-glycerine containing 1.0% p-phenylenediamine to reduce photobleaching.
To determine the number of immunofluorescent cell bodies (Table 1) the slides were viewed through a 1.0 cm^2 eyepiece grid, which was divided into one hundred 1 mm×1 mm units, and the total number of immunofluorescent cell bodies/unit area were counted. To calculate SPR immunofluorescence intensity, images of the 60 μm thick tissue sections were obtained with the BioRad MRC1024 laser scanning confocal fluorescent imaging system and analyzed using NIH Image 1.7.
Cell numbers and immunofluorescence levels were determined using confocal microscopy. […] All data points represent an n=6 and are expressed as +/−s.e.m. and significant differences calculated by a one-way ANOVA and Bonferroni comparisons (* denotes P<0.01).

[4] = system: capsaicin-induced hyperalgesia in rats; assay: Capsaicin-induced nocifensive behavior and mechanical and heat hyperalgesia after intrathecal pretreatment; assay type: in vivo, rat; conditions: compared to normal untreated animals, any time point
Text: Measures of nocifensive behavior and hyperalgesia produced by intraplantar injection of capsaicin were obtained as described previously (48). Hyperalgesia is defined as an increase in withdrawal responses. The capsaicin model of hyperalgesia used in these experiments was chosen as it has been well characterized, it clearly produces hyperalgesia in humans and it is the only model of hyperalgesia that can be used in parallel animal and human studies. Capsaicin (Sigma Chemical Co., St. Louis, Mo.) was dissolved in a vehicle of 7.5% polyxyethylene sorbitan monooleate (Tween-80) and saline, and given into the plantar surface of one hindpaw. Each animal received one injection of […]. The duration of nocifensive behavior, defined as lifting and guarding the injected paw, was measured for the first five minutes after injection.
Withdrawal responses to heat were determined using a procedure previously described (49). […] The start of each trial activated a timer and withdrawal latencies to the nearest 0.1 sec were measured automatically by a photocell which terminated each trial and stopped the timer upon withdrawal of the paw. […]
To measure withdrawal responses to mechanical stimuli, rats were placed under a clear plastic cage on an elevated plastic mesh floor (1 cm^2 perforations). […] The frequency was determined for each hindpaw. […]

NK-1R = molecular target: T1, NK-1R (Rattus norvegicus, UniProt P14600); assay: Inhibition of radiolabeled SP binding to spinal cord membrane homogenates; conditions: iodinated SP 150 pM, 100 nM nonlabeled competitor, FIG. 4
T1 construct: from tissue; host or cells: membrane homogenate (spinal cord according to the assay title)
Method: Homogenate is prepared and binding performed as previously described (26). […] Membrane-bound label is separated from free label by centrifugation and measured with a gamma counter. Control is no addition of competitor.

[5] = L4 segment, 28 days post-treatment, intrathecal, n=6, ± s.e.m.

T1 sequence (P14600 whole entry): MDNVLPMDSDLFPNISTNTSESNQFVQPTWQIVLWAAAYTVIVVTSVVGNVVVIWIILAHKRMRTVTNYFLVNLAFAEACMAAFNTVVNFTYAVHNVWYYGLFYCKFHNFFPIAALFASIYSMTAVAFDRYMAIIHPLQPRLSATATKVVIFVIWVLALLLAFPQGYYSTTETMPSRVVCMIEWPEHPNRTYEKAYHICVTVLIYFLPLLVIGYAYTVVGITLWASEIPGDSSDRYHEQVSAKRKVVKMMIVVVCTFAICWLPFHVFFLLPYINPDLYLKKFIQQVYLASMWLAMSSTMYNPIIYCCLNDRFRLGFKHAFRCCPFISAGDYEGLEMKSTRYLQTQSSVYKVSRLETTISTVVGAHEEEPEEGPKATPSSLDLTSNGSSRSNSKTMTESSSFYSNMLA

Row | Molecule | morphological or cytotoxic changes in NK-1R-expressing and non-NK-1R, MAP-2 neurons ([1]; 10^−7 M) | changes in body weight, food intake, alertness, locomotion or grooming behavior [2] | change in NK-1R immunoreactivity in lamina I, spinal segments L2-L5 [3] | change in cell number, morphology or fluorescence level of any of the cell markers examined [3] | change in mechanical or thermal hyperalgesia, or nocifensive behavior produced by capsaicin [4] | inhibition of iodinated SP binding (NK-1R) | other results
1 | COc1ccccc1CC(=N)N1C[C@@H]2C(=O)CCC(c3ccccc3)(c3ccccc3)[C@@H]2C1 [RP67580] | – | – | – | – | – | – | block of SP- and SP-SAP-induced NK-1R internalization ([1]; 5×10^−6 M antagonist): blocked
2 | RPKPQQFFGLM [SP] | no significant morphological or cytotoxic changes | no detectable changes | no change | did not produce a significant change | no significant change | – | NK-1R internalization ([1]; 10^−7 M, cultured spinal cord neurons): induced a rapid and similar degree of NK-1R internalization
3 | SAP: potent ribosome-inactivating protein isolated from the seeds of the plant Saponaria officinalis | no significant morphological or cytotoxic changes | no detectable changes | no change | did not produce a significant change | no significant change | little or no inhibition | Percent immunoreactive positive cells (saline = 100), SP (DRG) ([3]; L4 dorsal root ganglia, 28 days post-treatment, intrathecal, n=6, ± s.e.m.): 91 ± 11%; Percent immunofluorescence level, GFAP (lamina I) [3, 5]: 90 ± 13%; Percent immunofluorescence level, MAP-2 (lamina I) [3, 5]: 100 ± 14%; Percent immunofluorescence level, SP (laminae I and II) [3, 5]: 96 ± 3%; Percent immunofluorescence level, SPR (laminae I and II) [3, 5]: 95 ± 3%; Percent immunoreactive positive cells (saline = 100), Calbindin (laminae I and II) [3, 5]: 96 ± 7%; Percent immunoreactive positive cells (saline = 100), ChAT (motor neurons) [3, 5]: 116 ± 24%; Percent immunoreactive positive cells (saline = 100), SPR (lamina III and IV) [3, 5]: 79 ± 13%; Percent immunoreactive positive cells (saline = 100), SPR (laminae I and II) [3, 5]: 80 ± 16%; Percent immunofluorescence level, SPR (preganglionic sympathetic) ([3]; spinal segment T10, 28 days post-treatment, intrathecal, n=6, ± s.e.m.): 100 ± 9%
4 | neurokinin A | – | – | – | – | – | significant interaction with the NK-1R | –
5 | neurokinin B | – | – | – | – | – | little or no inhibition | –
